Results from patent publication US20240197890A1, “FLAVONE DERIVATIVES AND USES IN TARGETING CK2-MEDIATED DISEASES AND CONDITIONS” (Salk Institute for Biological Studies, priority 2020, published 2024).

What was measured:
BBB organoids = test: BBB permeability and anti-inflammatory activity in BBB organoids; format: cell-based; settings: 6.7 μM, 3 days, compared to FNH79 at 20 μM
Experimental: BBB permeability of IN2.2 was also determined in BBB organoids (Cho et al., Nat Commun 2017, 8:15623). Pools of -50 organoids were treated for 3 days with IL1-β and DMSO or compounds (FNH79 at 20 μM, IN2.2 at 6.7 μM) and collected in RNA-Bee reagent (Amsbio). qPCR for IL6 and IL8 expression was performed (mean±s.d., n=3).

CK2 [1] = test: Target engagement in mouse brain homogenates (Cyclex CK2 ELISA kit); format: in vivo; settings: single dose 25.6 mg/kg i.p., in comparison to FNH79
Experimental: Animals. All animal procedures were approved by the Institutional Animal Care and Use Committee of The Salk Institute for Biological Studies. Wildtype male C57BL/6 mice (2-3 months old) were housed under standard 12-h light/dark cycles with free access to food and water. IN2.2 or vehicle (3% hydroxypropylmethylcellulose, HPMC) was injected as a single dose (25.6 mg/kg) i.p. mice (n=6 and n=3 controls). Blood was collected at t=0, 0.5, 1, 2, 4, 8, 24 via retro-orbital bleeding and allowed to clot at room temperature to separate serum and clarified. At the final timepoint, mice were anesthetized with ketamine and tissues were harvested. Drug concentrations in serum and tissues were determined by LC/MS-MS. Target engagement in the brain was determined in brain homogenates from treated animals using the Cyclex CK2 ELISA kit. […] Tolerability was assessed mice (mean±s.d., n=5) by injecting with JKT56/IN3.2 daily at 20 mg/kg and monitoring closely for any signs of toxicity based on body weight changes and behavior/appearance (e.g. signs of distress, rough coat, squinty eyes, hunched posture).
IN2.2 or vehicle (3% wt/wt hydroxpropymethylcellulose aqueous solution) was injected as a single dose (25.6 mg/kg) i.p. in 2-3 month old C57Bl/6Nhsd mice (n=6 and n=3 controls). […] Drug concentrations in serum and tissues were determined by LC/MS-MS. […]

[2] = test system: IL6 and IL8 expression in astrocytes; test: Activation assay, ddPCR of cytokine expression in IL1-β-activated astrocytes; format: cell-based, human; settings: 5 h treatment
Experimental: Activation assays and ddPCR. HCA or H1-derived astrocytes were treated with vehicle (DMSO) or 20 μM compound and stimulated with IL1-B 10 ng/mL for 5 h. Cells were scraped into RNA-Bee and total RNA was purified using the Direct-zol RNA kit (Zymo Research). RNA concentration was measured using Nanodrop and RNA was reverse transcribed into cDNA using the High Capacity cDNA Reverse Transcriptase Kit (Applied Biosystems). Reaction mixes consisting of TaqMan FAM probe (IL6, IL8, CSNK2A1, CSNK2A2), control TaqMan ACTB-VIC probe (TFS 4326315E), ddPCR Supermix for Probes (Bio-Rad 186-3024), and cDNA were formed into oil droplets using the QX200 Droplet Generator. After amplification (Bio-Rad C1000 Touch Thermal Cycler) according to manufacturer's instructions, the plate was read in the QX200 Droplet Reader.

CK2 [3] = test: CK2 kinase assay in postmortem brain lysates (Csox peptide); format: biochemical, human; settings: pretreatment with 20 μM for 30 min
Experimental: Kinase assays. In vitro kinase assays were run using the Cysteine-Sox-Kinase Sensor AQT0696, 96 assay Kit (AssayQuant Tech, CSKS-AQT0696). Compound stocks (1.25×) at concentrations in a 2-fold dilution series were prepared in kinase reaction mixes and added in duplicate to a 384-well white-bottom NBS plates (Corning X) at 20 μL/well. Then, 5 μL active recombinant human CK2a1 kinase (Thermo Fisher PV3248, 5× in Kinase Dilution Buffer) was added to each well, quickly mixed by rotation, and incubated for 5 h at 30° C., with fluorescence readings taken every 3 min (excitation λ=365 nm, emission λ=495-505 nm) on a Promega GloMax Discover Microplate Reader. The final reaction conditions contained 10 μM AQT0696 Csox peptide, 1 mM ATP, 54 mM HEPES pH 7.5, 1.2 mM DTT, 0.012% Brij-35, 0.52 mM EGTA, 1% glycerol, 0.2 mg/mL BSA, 10 mM MgCl2, and 20 nM CK2a1. Slopes corresponding to linear reaction rates were obtained for each compound concentration (RFU/sec), normalized to DMSO controls, and IC50 values were determined by applying the dose response non-linear regression model in GraphPad Prism. […] After sonication and clarification, protein concentration was measured by BCA Assay. CK2 activity was measured as described above, except lysates were used instead of purified kinase at 2 μL/well (˜0.3-0.4 ug protein per reaction). […]

CK2 Y255 = test: Immunofluorescence of CK2 Y255 phosphorylation in nuclei of primary human astrocytes; format: cell-based; settings: 20 μM, 5 h
Experimental: (§1) Immunotluorescence. […] After treatment, cells were fixed with 4% paraformaldehyde solution for 20 min at room temperature and washed 3× with DPBS for 10 min each. The cells were permeabilized using 5% horse serum and 10% Triton X in DPBS for 15 min at room temperature and blocked with 5% horse serum in PBS for 30 min at room temperature. Cells were incubated with primary antibodies in blocking buffer either overnight at 4° C. or for 2 hours at room temperature. After incubation, cells were washed 3× with PBS, blocked using 5% horse serum in PBS for 30 min at room temperature, and incubated with Cy3 red-labeled or AF488 green-labeled secondary antibodies diluted in blocking buffer for 1 hour at room temperature. The cells were washed once with PBS for 10 min, then counter-stained with DAPI. The cells were washed 3× with PBS and mounted with glass coverslips and Immu-Mount solution. Images were obtained with the Zeiss fluorescent microscope. […]

IκB S32 = test: Immunoblot of IκB S32 in IL1-β-stimulated astrocytes; format: cell-based, human; settings: after 5 hours
Experimental: Western blotting. […] Cells were dissociated with 1:1 Accutase:papain for 3 min at rt, pelleted for 5 min at 800 g, and washed twice with cold DPBS. Pellets were lysed with RIPA buffer (Sigma R0278) supplemented with Halt protease inhibitor cocktail (Thermo Fisher 78445) and clarified by centrifugation (16,000 g, 10 min, 4° C.). Protein concentration was determined by BCA assay (Thermo Fisher). Proteins were denatured in 1×LDS Buffer and 2.5% beta-mercaptoethanol (X) for 10 min at 70° C., separated on Bolt 4-12% Bis-Tris Plus polyacrylamide gels (Thermo Fisher), transferred to PVDF membranes using the iBlot 2 Dry Blotting System, and blocked with 0.1% casein-PBS (Bio-Rad) for 1 h at room temperature. The blots were incubated with primary antibodies overnight at 4° C. in PBS containing 0.1% casein and 0.2% Tween-20. Antibodies used: rabbit anti-CK2a1 (Bethyl #, 1:5000), rabbit anti-CK2a2 (Bethyl #, 1:5000), mouse anti-GAPDH (Fitzgerald #10-1501, 1:20,000), mouse anti-NF-KB (CST #6956S, 1:1000), pNF-KB S529 (TFS #14-9864-82, 1:100), LC3B (CST 2775, 1:1000), ACO2 (CST 6922, 1:1000), rabbit HMGB1 (Novus #NB1002322, 1:1000), mouse anti-IκBα (CST #4814S, 1:1000), mouse anti-IκBa pS32 (SC #8404, 1:500), HA-tag (Bethyl #A190-108A, 1:20000). […] The blots were imaged using the Odyssey CLx imaging system and blots were analyzed on the ImageStudio software (LI-COR). […]

NF-κB pS529 = test: Immunofluorescence of NF-κB and NF-κB pS529 in activated astrocytes; format: cell-based, human
Experimental: Immunotluorescence. […] After treatment, cells were fixed with 4% paraformaldehyde solution for 20 min at room temperature and washed 3× with DPBS for 10 min each. The cells were permeabilized using 5% horse serum and 10% Triton X in DPBS for 15 min at room temperature and blocked with 5% horse serum in PBS for 30 min at room temperature. Cells were incubated with primary antibodies in blocking buffer either overnight at 4° C. or for 2 hours at room temperature. After incubation, cells were washed 3× with PBS, blocked using 5% horse serum in PBS for 30 min at room temperature, and incubated with Cy3 red-labeled or AF488 green-labeled secondary antibodies diluted in blocking buffer for 1 hour at room temperature. The cells were washed once with PBS for 10 min, then counter-stained with DAPI. The cells were washed 3× with PBS and mounted with glass coverslips and Immu-Mount solution. Images were obtained with the Zeiss fluorescent microscope. The following primary antibodies were used: rabbit anti-NF-κB (1:400; CST), mouse anti-phospho NF-κB S529 (20 ug/ml; Thermo Fisher), rabbit anti-CK2A1 (1:500; Bethyl), mouse anti-IKb alpha (1:400; CST), mouse anti-phospho IKb alpha (1:50; Santa Cruz), rabbit anti-phospho CK2A1 (1:25; Thermo Fisher), rabbit anti-phospho Cdc37 (1:50; Novus), mouse anti-phospho NF-κB S529 (1:25; R&D), rabbit anti-Cdc37 (1:100; CST), mouse anti-SQSTM1 (1:50; Santa Cruz), anti rabbit-phospho NF-κB S536 (1:1600; CST), anti rabbit-Akt (pan) (1:400; CST), anti mouse-phospho Akt S473 (1:500; Sigma).
To investigate the potential effects of CK2 activity on NF-κB, NF-κB and NF-κB pS529 were measured by immunofluorescence in activated astrocytes. […] At this timepoint, NF-κB pS529 levels were similar across all treatments, possibly as a result of slower turnover by pNF-κB species.

468 human kinases = settings: testing concentration of 1 μM; cited from earlier work
AKT pS473 = test: Immunofluorescence of AKT pS473 in IL1β-stimulated primary astrocytes; format: cell-based; settings: IL1-β for 5 h
Experimental: as §1

SMILES | IL6 and IL8 expression (BBB organoids; IL1-β) | BBB permeability (BBB organoids) | target engagement in brain (CK2 [1]) | expression of IL6 and IL8 in IL1-β-activated astrocytes [2] | CK2-specific fluorescence of phosphorylated Csox peptide in brain lysates (CK2 [3]) | pCK2/CK2 in nuclei (CK2 Y255) | IκB S32 levels (IκB S32) | IL1-β-induced increase of NF-κB nuclear intensity (NF-κB pS529; after 1 h) | pNF-κB nuclear intensity relative to total NF-κB (NF-κB pS529; after 5 hours) | number of other kinases inhibited >90% (468 human kinases) | AKT pS473 levels (AKT pS473)
COc1cc(-c2cc(=O)c3cc(Br)cc(Br)c3o2)ncc1O [IN2.2] | reduction | superior permeability | superior target engagement | – | – | – | – | – | – | – | –
O=C(O)c1ccc2c(c1)nc(Nc1cccc(Cl)c1)c1ccncc12 [CX4945] | – | – | – | successfully blocked | blocked | reduced | decreased | blocked | reduced | 28 | reduced
